# Where two headings read alike, the source gives them in different places.
# Key:
# [1] = system: Mycobacterium tuberculosis H37Ra ITM-M006710 (ATCC 9431); test: Antimycobacterial microdilution (resazurin) vs Mtb H37Ra; assay type: cell-based
# [2] = system: Lichtheimia corymbifera CCM 8077; test: Antifungal microdilution broth (EUCAST); assay type: cell-based; settings: Lichtheimia corymbifera, read-out: MIC Lichtheimia corymbifera
# [3] = system: Aspergillus flavus CCM 8363; test: Antifungal microdilution broth (EUCAST); assay type: cell-based; settings: Aspergillus flavus, read-out: MIC Aspergillus flavus
# [4] = system: Mycobacterium tuberculosis H37Rv CNCTC My 331/88 (ATCC 27294); test: Microplate Alamar Blue assay vs Mtb H37Rv; assay type: cell-based; settings: Mycobacterium tuberculosis
# [5] = system: Trichophyton interdigitale CCM 8377 (ATCC 9533); test: Antifungal microdilution broth (EUCAST); assay type: cell-based; settings: Trichophyton interdigitale, read-out: MIC Trichophyton interdigitale
# [6] = system: Mycolicibacterium aurum DSM 43,999 (ATCC 23366); test: Antimycobacterial microdilution (resazurin) vs M. aurum; assay type: cell-based; settings: Middlebrook 7H9, resazurin, read-out: MIC M. aurum
# [7] = system: Staphylococcus epidermidis CCM 4418 (ATCC 12228); test: Antibacterial microdilution broth (EUCAST); assay type: cell-based; settings: read-out: MIC Staphylococcus epidermidis
# [8] = system: Candida krusei CCM 8271 (ATCC 6258); test: Antifungal microdilution broth (EUCAST); assay type: cell-based; settings: Pichia kudriavzevii, read-out: MIC Candida krusei
# [9] = system: methicillin-resistant Staphylococcus aureus subsp. aureus (MRSA) CCM 4750 (ATCC 43300); test: microbe, parasite or virus in culture; assay type: cell-based; settings: read-out: MIC Methicillin-resistant Staphylococcus aureus subsp. aureus
# [10] = system: Mycobacterium avium DSM 44,156 (ATCC 25291); test: Antimycobacterial microdilution (resazurin) vs M. avium; assay type: cell-based
# [11] = system: Escherichia coli CCM 3954 (ATCC 25922); test: Antibacterial microdilution broth (EUCAST); assay type: cell-based; settings: Escherichia coli, read-out: MIC Escherichia coli
# [12] = system: Acinetobacter baumannii DSM 30007 (ATCC 19606); test: Antibacterial microdilution broth (EUCAST); assay type: cell-based; settings: read-out: MIC Acinetobacter baumannii
# [13] = system: HepG2 cell line; test: Cytotoxicity screening, CellTiter 96 assay; settings: for IC50: Homo sapiens, HepG2, 24 h, read-out: IC50 HepG2; for toxicity to HepG2 up to highest tested concentration: tested up to 500 µM (2, 3), 250 µM (12, 17), 100 µM (6, 7, 11) because of solubility
# [14] = system: Klebsiella pneumoniae CCM 4415 (ATCC 10031); test: Antibacterial microdilution broth (EUCAST); assay type: cell-based; settings: Klebsiella pneumoniae, read-out: MIC Klebsiella pneumoniae
# [15] = system: Mycolicibacterium smegmatis DSM 43,465 (ATCC 607); test: Antimycobacterial microdilution (resazurin) vs M. smegmatis; assay type: cell-based; settings: Middlebrook 7H9, resazurin, read-out: MIC M. smeg.
# [16] = system: Staphylococcus aureus subsp. aureus CCM 4223 (ATCC 29213); test: Antibacterial microdilution broth (EUCAST); assay type: cell-based; settings: read-out: MIC Staphylococcus aureus subsp. aureus
# [17] = system: Aspergillus fumigatus ATCC 204305; test: Antifungal microdilution broth (EUCAST); assay type: cell-based; settings: Aspergillus fumigatus, read-out: MIC Aspergillus fumigatus
# [18] = system: Candida albicans CCM 8320 (ATCC 24433); test: Antifungal microdilution broth (EUCAST); assay type: cell-based; settings: Candida albicans, read-out: MIC Candida albicans
# [19] = system: Candida parapsilosis CCM 8260 (ATCC 22019); test: Antifungal microdilution broth (EUCAST); assay type: cell-based; settings: Lodderomyces parapsilosis, read-out: MIC Candida parapsilosis
# [20] = system: Pseudomonas aeruginosa CCM 3955 (ATCC 27853); test: Antibacterial microdilution broth (EUCAST); assay type: cell-based; settings: read-out: MIC Pseudomonas aeruginosa
# [21] = system: Candida tropicalis CCM 8264 (ATCC 750); test: Antifungal microdilution broth (EUCAST); assay type: cell-based; settings: read-out: MIC Candida tropicalis
# [22] = system: Mycobacterium kansasii DSM 44,162 (ATCC 12478); test: Antimycobacterial microdilution (resazurin) vs M. kansasii; assay type: cell-based; settings: read-out: MIC M. kansasii
# [23] = system: Enterococcus faecalis CCM 4224 (ATCC 29212); test: Antibacterial microdilution broth (EUCAST); assay type: cell-based; settings: read-out: MIC Enterococcus faecalis
# [24] = Middlebrook 7H9, resazurin, recalculated from µg/mL, read-out: MIC Mtb H37Ra
# [25] = pH 6.6, MABA, Middlebrook 7H9 pH 6.6, recalculated from µg/mL, read-out: MIC Mtb H37Rv
# [26] = Mycobacterium avium, Middlebrook 7H9, resazurin, read-out: MIC M. avium
structure (smiles),measurement,setting,value
"Cc1nccnc1C(=O)Nc1ccc2c(c1)B(O)OC2 [Compound 3, N-(1-hydroxy-1,3-dihydrobenzo[c][1,2]oxaborol-6-yl)-3-methylpyrazine-2-carboxamide]",MIC,"[1]; read-out: MIC Mtb H37Ra, Middlebrook 7H9, resazurin, recalculated from µg/mL",> 1850 µM
same,MIC,"[2]; CCM8077, 24h incubation",> 500 µM
same,MIC,"[2]; CCM8077, 48h incubation",> 500 µM
same,MIC,"[3]; CCM8363, 24h incubation",> 500 µM
same,MIC,"[3]; CCM8363, 48h incubation",> 500 µM
same,MIC,"[4]; pH 6.6, read-out: MIC Mtb H37Rv, MABA, Middlebrook 7H9 pH 6.6, recalculated from µg/mL",92.9 µM
same,MIC,[5]; 72h incubation,> 500 µM
same,MIC,[5]; 120h incubation,> 500 µM
same,MIC,[6],14.5 µM
same,MIC,[7]; 24h incubation,> 500 µM
same,MIC,[7]; 48h incubation,> 500 µM
same,MIC,[8]; 24h incubation,> 500 µM
same,MIC,[8]; 48h incubation,> 500 µM
same,MIC,[9]; 24 h,> 500 µM
same,MIC,[9]; 48 h,> 500 µM
same,MIC,"[10]; Mycobacterium avium, read-out: MIC M. avium, Middlebrook 7H9, resazurin",> 1850 µM
same,MIC,[11]; 24h incubation,> 500 µM
same,MIC,[11]; 48h incubation,> 500 µM
same,MIC,[12]; 24h incubation,> 500 µM
same,MIC,[12]; 48h incubation,> 500 µM
same,IC50,[13],> 500 µM
same,toxicity to HepG2 up to highest tested concentration,[13],non-toxic
same,MIC,[14]; 24h incubation,> 500 µM
same,MIC,[14]; 48h incubation,> 500 µM
same,MIC,[15],14.5 µM
same,MIC,[16]; 24h incubation,> 500 µM
same,MIC,[16]; 48h incubation,> 500 µM
same,MIC,"[17]; ATCC204305, 24h incubation",> 500 µM
same,MIC,"[17]; ATCC204305, 48h incubation",> 500 µM
same,MIC,[18]; 24h incubation,> 500 µM
same,MIC,[18]; 48h incubation,> 500 µM
same,MIC,[19]; 24h incubation,> 500 µM
same,MIC,[19]; 48h incubation,> 500 µM
same,MIC,[20]; 24h incubation,> 500 µM
same,MIC,[20]; 48h incubation,> 500 µM
same,MIC,[21]; 24h incubation,> 500 µM
same,MIC,[21]; 48h incubation,> 500 µM
same,MIC,"[22]; Middlebrook 7H9, resazurin",58.1 µM
same,MIC,[23]; 24h incubation,> 500 µM
same,MIC,[23]; 48h incubation,> 500 µM
same,melting point,,262.9 to 264 °C
"O=C(Nc1ccc2c(c1)B(O)OC2)c1ccc(C(F)(F)F)nc1 [Compound 12, N-(1-hydroxy-1,3-dihydrobenzo[c][1,2]oxaborol-6-yl)-6-(trifluoromethyl)nicotinamide]",MIC,[1]; [24],194 µM
same,MIC,"[2]; CCM8077, 24h incubation",> 500 µM
same,MIC,"[2]; CCM8077, 48h incubation",> 500 µM
same,MIC,"[3]; CCM8363, 24h incubation",> 500 µM
same,MIC,"[3]; CCM8363, 48h incubation",> 500 µM
same,MIC,[4]; [25],155 µM
same,MIC,[5]; 72h incubation,> 500 µM
same,MIC,[5]; 120h incubation,> 500 µM
same,MIC,[6],12.1 µM
same,MIC,[7]; 24h incubation,> 500 µM
same,MIC,[7]; 48h incubation,> 500 µM
same,MIC,[8]; 24h incubation,> 500 µM
same,MIC,[8]; 48h incubation,> 500 µM
same,MIC,[9]; 24 h,> 500 µM
same,MIC,[9]; 48 h,> 500 µM
same,MIC,[10]; [26],388 µM
same,MIC,[11]; 24h incubation,> 500 µM
same,MIC,[11]; 48h incubation,> 500 µM
same,MIC,[12]; 24h incubation,> 500 µM
same,MIC,[12]; 48h incubation,> 500 µM
same,IC50,[13],> 250 µM
same,toxicity to HepG2 up to highest tested concentration,[13],non-toxic
same,MIC,[14]; 24h incubation,> 500 µM
same,MIC,[14]; 48h incubation,> 500 µM
same,MIC,[15],24.2 µM
same,MIC,[16]; 24h incubation,> 500 µM
same,MIC,[16]; 48h incubation,> 500 µM
same,MIC,"[17]; ATCC204305, 24h incubation",> 500 µM
same,MIC,"[17]; ATCC204305, 48h incubation",> 500 µM
same,MIC,[18]; 24h incubation,> 500 µM
same,MIC,[18]; 48h incubation,> 500 µM
same,MIC,[19]; 24h incubation,> 500 µM
same,MIC,[19]; 48h incubation,> 500 µM
same,MIC,[20]; 24h incubation,> 500 µM
same,MIC,[20]; 48h incubation,> 500 µM
same,MIC,[21]; 24h incubation,> 500 µM
same,MIC,[21]; 48h incubation,> 500 µM
same,MIC,[22],194 µM
same,MIC,[23]; 24h incubation,> 500 µM
same,MIC,[23]; 48h incubation,> 500 µM
same,melting point,,227.3 to 229.4 °C
"O=C(Nc1ccc2c(c1)B(O)OC2)c1ccc2ccccc2n1 [Compound 19, N-(1-hydroxy-1,3-dihydrobenzo[c][1,2]oxaborol-6-yl)quinoline-2-carboxamide]",MIC,[1]; [24],206 µM
same,MIC,"[2]; CCM8077, 24 h",> 125 µM
same,MIC,"[2]; CCM8077, 48 h",> 125 µM
same,MIC,"[3]; CCM8363, 24 h",> 125 µM
same,MIC,"[3]; CCM8363, 48 h",> 125 µM
same,MIC,[4]; [25],82.2 µM
same,MIC,[5]; 72 h,> 125 µM
same,MIC,[5]; 120 h,> 125 µM
same,MIC,[6],25.7 µM
same,MIC,[7]; 24 h,> 125 µM
same,MIC,[7]; 48 h,> 125 µM
same,MIC,[8]; 24 h,> 125 µM
same,MIC,[8]; 48 h,> 125 µM
same,MIC,[9]; 24 h,> 125 µM
same,MIC,[9]; 48 h,> 125 µM
same,MIC,"[10]; Middlebrook 7H9, resazurin, read-out: MIC M. avium",25.68 µM
same,MIC,[10]; [26],25.6 µM
same,MIC,[11]; 24 h,> 125 µM
same,MIC,[11]; 48 h,> 125 µM
same,MIC,[12]; 24 h,> 125 µM
same,MIC,[12]; 48 h,> 125 µM
same,IC50,[13],467 µM
same,MIC,[14]; 24 h,> 125 µM
same,MIC,[14]; 48 h,> 125 µM
same,MIC,[15],25.7 µM
same,MIC,[16]; 24 h,125 µM
same,MIC,[16]; 48 h,125 µM
same,MIC,"[17]; ATCC204305, 24 h",> 125 µM
same,MIC,"[17]; ATCC204305, 48 h",> 125 µM
same,MIC,[18]; 24 h,> 125 µM
same,MIC,[18]; 48 h,> 125 µM
same,MIC,[19]; 24 h,> 125 µM
same,MIC,[19]; 48 h,> 125 µM
same,MIC,[20]; 24 h,> 125 µM
same,MIC,[20]; 48 h,> 125 µM
same,MIC,[21]; 24 h,> 125 µM
same,MIC,[21]; 48 h,> 125 µM
same,MIC,[22],206 µM
same,MIC,[23]; 24 h,> 125 µM
same,MIC,[23]; 48 h,> 125 µM
same,melting point,,201 to 203.1 °C

# — article PMC9917560, “Design, Synthesis and Antimicrobial Evaluation of New N-(1-Hydroxy-1,3-dihydrobenzo[c][1,2]oxaborol-6-yl)(hetero)aryl-2-carboxamides as Potential Inhibitors of Mycobacterial Leucyl-tRNA Synthetase” (International Journal of Molecular Sciences, 2023)
